Measurements from the NIST ThermoML archive (doi:10.1021/je900615b).
Numbers after ± are expanded uncertainties.

Settings: Liquid, Hot wire method

CCOCC [diethyl ether]
Settings | thermal conductivity [W/m/K]
234.64 K, 100 kPa | 0.1453 ± 0.003
234.88 K, 20100 kPa | 0.1543 ± 0.0031
234.9 K, 30300 kPa | 0.1565 ± 0.0032
234.92 K, 20100 kPa | 0.1542 ± 0.0031
235.03 K, 100 kPa | 0.1461 ± 0.003
235.09 K, 20200 kPa | 0.1538 ± 0.0031
235.1 K, 10100 kPa | 0.1496 ± 0.0031
235.17 K, 5100 kPa | 0.1478 ± 0.003
235.22 K, 30200 kPa | 0.1563 ± 0.0032
235.4 K, 30400 kPa | 0.1559 ± 0.0032
235.48 K, 10100 kPa | 0.1499 ± 0.0031
235.53 K, 5100 kPa | 0.1479 ± 0.003
235.89 K, 10100 kPa | 0.15 ± 0.0031
235.93 K, 5100 kPa | 0.1477 ± 0.003
235.94 K, 100 kPa | 0.1456 ± 0.003
254.64 K, 20200 kPa | 0.1484 ± 0.003
254.74 K, 30000 kPa | 0.1514 ± 0.0031
254.75 K, 5200 kPa | 0.1408 ± 0.0029
254.86 K, 30000 kPa | 0.1512 ± 0.0031
254.91 K, 19700 kPa | 0.1477 ± 0.003
254.95 K, 100 kPa | 0.1386 ± 0.0028
254.98 K, 10100 kPa | 0.1427 ± 0.0029
254.99 K, 4900 kPa | 0.1411 ± 0.0029
255.26 K, 100 kPa | 0.1386 ± 0.0028
255.28 K, 29900 kPa | 0.1512 ± 0.0031
255.34 K, 20200 kPa | 0.1475 ± 0.003
255.37 K, 5100 kPa | 0.1407 ± 0.0029
255.38 K, 10200 kPa | 0.1432 ± 0.003
255.69 K, 10000 kPa | 0.1427 ± 0.003
255.7 K, 100 kPa | 0.1386 ± 0.0028
274.69 K, 100 kPa | 0.1315 ± 0.0027
274.7 K, 20100 kPa | 0.1409 ± 0.0029
274.71 K, 5000 kPa | 0.1338 ± 0.0027
274.71 K, 10000 kPa | 0.1363 ± 0.0028
274.92 K, 30000 kPa | 0.1447 ± 0.003
274.93 K, 20000 kPa | 0.1409 ± 0.0029
274.96 K, 100 kPa | 0.1319 ± 0.0027
274.97 K, 10000 kPa | 0.1362 ± 0.0028
275.21 K, 30000 kPa | 0.145 ± 0.003
275.37 K, 100 kPa | 0.1317 ± 0.0027
275.38 K, 5000 kPa | 0.1339 ± 0.0027
275.56 K, 10100 kPa | 0.1364 ± 0.0028
275.64 K, 30000 kPa | 0.145 ± 0.003
275.7 K, 20000 kPa | 0.1407 ± 0.0029
275.79 K, 5000 kPa | 0.134 ± 0.0027
294.61 K, 20200 kPa | 0.1366 ± 0.0029
294.79 K, 10100 kPa | 0.1311 ± 0.0027
294.81 K, 5100 kPa | 0.128 ± 0.0026
294.83 K, 29900 kPa | 0.1419 ± 0.0029
294.93 K, 20000 kPa | 0.1366 ± 0.0028
295.04 K, 5000 kPa | 0.128 ± 0.0026
295.06 K, 10100 kPa | 0.1309 ± 0.0027
295.08 K, 29700 kPa | 0.1416 ± 0.003
295.25 K, 20000 kPa | 0.1365 ± 0.0028
295.26 K, 10000 kPa | 0.1308 ± 0.0027
295.31 K, 100 kPa | 0.1248 ± 0.0026
295.43 K, 5100 kPa | 0.1277 ± 0.0026
295.53 K, 29900 kPa | 0.1419 ± 0.0029
295.6 K, 100 kPa | 0.1252 ± 0.0026
296.02 K, 100 kPa | 0.125 ± 0.0026
314.33 K, 5100 kPa | 0.1201 ± 0.0025
314.44 K, 5300 kPa | 0.1205 ± 0.0025
314.55 K, 30100 kPa | 0.1357 ± 0.0028
314.6 K, 10000 kPa | 0.1231 ± 0.0025
314.95 K, 10100 kPa | 0.1236 ± 0.0025
314.95 K, 20100 kPa | 0.1291 ± 0.0026
314.95 K, 30100 kPa | 0.1361 ± 0.0028
315.01 K, 200 kPa | 0.1187 ± 0.0024
315.13 K, 200 kPa | 0.1182 ± 0.0024
315.21 K, 5200 kPa | 0.1202 ± 0.0025
315.39 K, 30100 kPa | 0.1356 ± 0.0028
315.5 K, 200 kPa | 0.1182 ± 0.0024
315.52 K, 10100 kPa | 0.1232 ± 0.0025
315.56 K, 20200 kPa | 0.1289 ± 0.0026
315.91 K, 20100 kPa | 0.1287 ± 0.0026
335.02 K, 5100 kPa | 0.1127 ± 0.0023
335.13 K, 20300 kPa | 0.1222 ± 0.0025
335.21 K, 5100 kPa | 0.1127 ± 0.0023
335.28 K, 200 kPa | 0.1093 ± 0.0022
335.3 K, 30200 kPa | 0.1275 ± 0.0026
335.33 K, 10200 kPa | 0.1159 ± 0.0024
335.33 K, 19900 kPa | 0.1217 ± 0.0025
335.63 K, 5200 kPa | 0.1126 ± 0.0023
335.71 K, 20400 kPa | 0.1224 ± 0.0025
335.72 K, 10100 kPa | 0.1162 ± 0.0024
335.72 K, 30000 kPa | 0.1271 ± 0.0026
335.78 K, 200 kPa | 0.1091 ± 0.0022
336.08 K, 200 kPa | 0.1092 ± 0.0022
336.13 K, 30200 kPa | 0.1269 ± 0.0026
336.17 K, 10100 kPa | 0.1159 ± 0.0024
354.59 K, 30000 kPa | 0.1208 ± 0.0025
354.75 K, 5000 kPa | 0.1044 ± 0.0021
355.05 K, 10000 kPa | 0.1084 ± 0.0022
355.05 K, 30000 kPa | 0.1206 ± 0.0025
355.08 K, 500 kPa | 0.1001 ± 0.0021
355.18 K, 20000 kPa | 0.115 ± 0.0024
355.32 K, 10100 kPa | 0.1082 ± 0.0022
355.37 K, 5000 kPa | 0.1048 ± 0.0022
355.39 K, 30000 kPa | 0.1204 ± 0.0025
355.52 K, 500 kPa | 0.1001 ± 0.0021
355.52 K, 20000 kPa | 0.1148 ± 0.0024
355.74 K, 5000 kPa | 0.1045 ± 0.0021
355.8 K, 10000 kPa | 0.1079 ± 0.0022
355.82 K, 500 kPa | 0.1002 ± 0.0021
356.03 K, 20000 kPa | 0.1147 ± 0.0023
374.62 K, 10000 kPa | 0.1004 ± 0.0021
374.7 K, 5200 kPa | 0.0974 ± 0.002
374.92 K, 30000 kPa | 0.1132 ± 0.0023
375.01 K, 29700 kPa | 0.1131 ± 0.0023
375.06 K, 10000 kPa | 0.1011 ± 0.0021
375.22 K, 20000 kPa | 0.1081 ± 0.0022
375.25 K, 5100 kPa | 0.0973 ± 0.002
375.4 K, 5000 kPa | 0.0973 ± 0.002
375.46 K, 10000 kPa | 0.1008 ± 0.0021
375.51 K, 29800 kPa | 0.1135 ± 0.0023
375.62 K, 20000 kPa | 0.1082 ± 0.0022
375.72 K, 700 kPa | 0.0926 ± 0.0019
376.18 K, 700 kPa | 0.0925 ± 0.0019
376.28 K, 20000 kPa | 0.1076 ± 0.0022
376.8 K, 700 kPa | 0.0923 ± 0.0019
